Source: PubChem BioAssay (NCI)
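Following 48 hours of exposure in 96-well plates, responses at five concentrations were used to interpolate endpoints linearly. The concentration for 50% growth inhibition is given as GI50. At the TGI there is no net growth.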

Key:
Test in all cases: NCI-60 cell line screen, 48 h
HOP-62 NSCLC = tested on: HOP-62 NSCLC
LOX IMVI melanoma = tested on: LOX IMVI melanoma
KM12 colon = tested on: KM12 colon
OVCAR-8 ovarian = tested on: OVCAR-8 ovarian
COLO 205 colon = tested on: COLO 205 colon
CCRF-CEM leukemia = tested on: CCRF-CEM leukemia
OVCAR-3 ovarian = tested on: OVCAR-3 ovarian
OVCAR-5 ovarian = tested on: OVCAR-5 ovarian
HCT-15 colon = tested on: HCT-15 colon
NCI/ADR-RES ovarian = tested on: NCI/ADR-RES ovarian
NCI-H226 lung = tested on: NCI-H226 lung
SF-268 CNS = tested on: SF-268 CNS
NCI-H460 lung = tested on: NCI-H460 lung
HL-60(TB) leukemia = tested on: HL-60(TB) leukemia
SK-MEL-5 melanoma = tested on: SK-MEL-5 melanoma
SF-295 CNS = tested on: SF-295 CNS
MCF7 breast = tested on: MCF7 breast
HS 578T breast = tested on: HS 578T breast
SNB-19 CNS = tested on: SNB-19 CNS
RPMI-8226 leukemia = tested on: RPMI-8226 leukemia
EKVX NSCLC = tested on: EKVX NSCLC
HCT-116 colon = tested on: HCT-116 colon
U251 CNS = tested on: U251 CNS
BT-549 breast = tested on: BT-549 breast
OVCAR-4 ovarian = tested on: OVCAR-4 ovarian
SW-620 colon = tested on: SW-620 colon
T-47D breast = tested on: T-47D breast
SN12C renal = tested on: SN12C renal
A498 renal = tested on: A498 renal
HCC-2998 colon = tested on: HCC-2998 colon
MDA-MB-435 = tested on: MDA-MB-435
SK-OV-3 ovarian = tested on: SK-OV-3 ovarian
DU-145 prostate = tested on: DU-145 prostate
K-562 leukemia = tested on: K-562 leukemia
NCI-H23 lung = tested on: NCI-H23 lung
ACHN renal = tested on: ACHN renal
UACC-62 melanoma = tested on: UACC-62 melanoma
HT29 colon = tested on: HT29 colon
UO-31 renal = tested on: UO-31 renal
SF-539 CNS = tested on: SF-539 CNS
M14 melanoma = tested on: M14 melanoma
SNB-75 CNS = tested on: SNB-75 CNS
SR leukemia = tested on: SR leukemia
UACC-257 melanoma = tested on: UACC-257 melanoma
NCI-H522 lung = tested on: NCI-H522 lung
TK-10 renal = tested on: TK-10 renal
MOLT-4 leukemia = tested on: MOLT-4 leukemia
PC-3 prostate = tested on: PC-3 prostate
CAKI-1 renal = tested on: CAKI-1 renal
786-0 renal = tested on: 786-0 renal
SK-MEL-28 melanoma = tested on: SK-MEL-28 melanoma
A549 NSCLC = tested on: A549 NSCLC
HOP-92 NSCLC = tested on: HOP-92 NSCLC
IGROV1 ovarian = tested on: IGROV1 ovarian
MDA-MB-231 breast = tested on: MDA-MB-231 breast

SMILES: Nc1ccc2[nH]c(C(=O)N3CC(CCl)c4c3cc(N)c3ccccc43)cc2c1 (centres undefined)
- TGI (HOP-62 NSCLC): 55.6 nM
- TGI (LOX IMVI melanoma): 14.5 nM
- TGI (KM12 colon): 71.4 nM
- TGI (OVCAR-8 ovarian): 23.6 nM
- TGI (COLO 205 colon): 22.3 nM
- TGI (CCRF-CEM leukemia): > 100000 nM
- TGI (OVCAR-3 ovarian): > 100000 nM
- TGI (OVCAR-5 ovarian): > 100000 nM
- TGI (HCT-15 colon): 1280 nM
- TGI (NCI/ADR-RES ovarian): < 10 nM
- TGI (NCI-H226 lung): < 10 nM
- TGI (SF-268 CNS): < 10 nM
- TGI (NCI-H460 lung): < 10 nM
- TGI (HL-60(TB) leukemia): 16.2 nM
- TGI (SK-MEL-5 melanoma): < 41.4 nM
- TGI (SF-295 CNS): < 10 nM
- TGI (MCF7 breast): 153 nM
- TGI (HS 578T breast): 57 nM
- TGI (SNB-19 CNS): < 48.9 nM
- TGI (RPMI-8226 leukemia): < 25.5 nM
- TGI (EKVX NSCLC): 31.3 nM
- TGI (HCT-116 colon): 1090 nM
- TGI (U251 CNS): 147 nM
- TGI (BT-549 breast): < 24.4 nM
- TGI (OVCAR-4 ovarian): < 10 nM
- TGI (SW-620 colon): 124 nM
- TGI (T-47D breast): 455 nM
- TGI (SN12C renal): 32.5 nM
- TGI (A498 renal): 28.8 nM
- TGI (HCC-2998 colon): < 10 nM
- TGI (MDA-MB-435): 25 nM
- TGI (SK-OV-3 ovarian): 1210 nM
- TGI (DU-145 prostate): < 10 nM
- TGI (K-562 leukemia): > 100000 nM
- TGI (NCI-H23 lung): < 10 nM
- TGI (ACHN renal): 10.3 nM
- TGI (UACC-62 melanoma): 10.1 nM
- TGI (HT29 colon): < 22.9 nM

SMILES: COc1ccc(CN2c3ccccc3CCc3ccccc32)cc1F
- GI50 (HOP-62 NSCLC): 529 nM
- TGI (HOP-62 NSCLC): > 100000 nM
- GI50 (UO-31 renal): 814 nM
- TGI (UO-31 renal): > 100000 nM
- GI50 (SF-539 CNS): 287 nM
- TGI (SF-539 CNS): 958 nM
- GI50 (LOX IMVI melanoma): 725 nM
- TGI (LOX IMVI melanoma): > 100000 nM
- GI50 (M14 melanoma): 354 nM
- TGI (M14 melanoma): > 100000 nM
- GI50 (SNB-75 CNS): 277 nM
- TGI (SNB-75 CNS): > 100000 nM
- GI50 (KM12 colon): 387 nM
- TGI (KM12 colon): > 100000 nM
- GI50 (OVCAR-8 ovarian): 880 nM
- TGI (OVCAR-8 ovarian): > 100000 nM
- GI50 (COLO 205 colon): 335 nM
- TGI (COLO 205 colon): 1390 nM
- GI50 (CCRF-CEM leukemia): 515 nM
- TGI (CCRF-CEM leukemia): > 100000 nM
- GI50 (OVCAR-3 ovarian): 285 nM
- TGI (OVCAR-3 ovarian): 785 nM
- GI50 (SR leukemia): 463 nM
- TGI (SR leukemia): > 100000 nM
- GI50 (OVCAR-5 ovarian): 1900 nM
- TGI (OVCAR-5 ovarian): > 100000 nM
- GI50 (HCT-15 colon): 428 nM
- TGI (HCT-15 colon): > 100000 nM
- GI50 (NCI/ADR-RES ovarian): 456 nM
- TGI (NCI/ADR-RES ovarian): > 100000 nM
- GI50 (NCI-H226 lung): 2430 nM
- TGI (NCI-H226 lung): > 100000 nM
- GI50 (UACC-257 melanoma): > 100000 nM
- TGI (UACC-257 melanoma): > 100000 nM
- GI50 (SF-268 CNS): 660 nM
- TGI (SF-268 CNS): > 100000 nM
- GI50 (NCI-H460 lung): 419 nM
- TGI (NCI-H460 lung): > 100000 nM
- GI50 (SK-MEL-5 melanoma): 522 nM
- TGI (SK-MEL-5 melanoma): 14200 nM
- GI50 (SF-295 CNS): 333 nM
- TGI (SF-295 CNS): > 100000 nM
- GI50 (MCF7 breast): 352 nM
- TGI (MCF7 breast): > 100000 nM
- GI50 (NCI-H522 lung): 609 nM
- TGI (NCI-H522 lung): > 100000 nM
- GI50 (HS 578T breast): 487 nM
- TGI (HS 578T breast): > 100000 nM
- GI50 (SNB-19 CNS): 697 nM
- TGI (SNB-19 CNS): > 100000 nM
- GI50 (TK-10 renal): 611 nM
- TGI (TK-10 renal): > 100000 nM
- GI50 (RPMI-8226 leukemia): 644 nM
- TGI (RPMI-8226 leukemia): > 100000 nM
- GI50 (EKVX NSCLC): 1550 nM
- TGI (EKVX NSCLC): > 100000 nM
- GI50 (MOLT-4 leukemia): 554 nM
- TGI (MOLT-4 leukemia): > 100000 nM
- GI50 (PC-3 prostate): 489 nM
- TGI (PC-3 prostate): > 100000 nM
- GI50 (HCT-116 colon): 413 nM
- TGI (HCT-116 colon): > 100000 nM
- GI50 (CAKI-1 renal): 549 nM
- TGI (CAKI-1 renal): > 100000 nM
- GI50 (U251 CNS): 496 nM
- TGI (U251 CNS): > 100000 nM
- GI50 (BT-549 breast): 776 nM
- TGI (BT-549 breast): 41200 nM
- GI50 (OVCAR-4 ovarian): 868 nM
- TGI (OVCAR-4 ovarian): > 100000 nM
- GI50 (SW-620 colon): 386 nM
- TGI (SW-620 colon): > 100000 nM
- GI50 (786-0 renal): 572 nM
- TGI (786-0 renal): > 100000 nM
- GI50 (SK-MEL-28 melanoma): 820 nM
- TGI (SK-MEL-28 melanoma): > 100000 nM
- GI50 (T-47D breast): 394 nM
- TGI (T-47D breast): > 100000 nM
- GI50 (SN12C renal): 1950 nM
- TGI (SN12C renal): > 100000 nM
- GI50 (A498 renal): 339 nM
- TGI (A498 renal): > 100000 nM
- GI50 (HCC-2998 colon): 8900 nM
- TGI (HCC-2998 colon): > 100000 nM
- GI50 (SK-OV-3 ovarian): 471 nM
- TGI (SK-OV-3 ovarian): > 100000 nM
- GI50 (DU-145 prostate): 481 nM
- TGI (DU-145 prostate): > 100000 nM
- GI50 (K-562 leukemia): 402 nM
- TGI (K-562 leukemia): > 100000 nM
- GI50 (A549 NSCLC): 732 nM
- TGI (A549 NSCLC): > 100000 nM
- GI50 (HOP-92 NSCLC): 587 nM
- TGI (HOP-92 NSCLC): 48000 nM
- GI50 (NCI-H23 lung): 672 nM
- TGI (NCI-H23 lung): > 100000 nM
- GI50 (IGROV1 ovarian): 1570 nM
- TGI (IGROV1 ovarian): > 100000 nM
- GI50 (MDA-MB-231 breast): 1350 nM
- TGI (MDA-MB-231 breast): 79700 nM
- GI50 (ACHN renal): 604 nM
- TGI (ACHN renal): > 100000 nM
- GI50 (UACC-62 melanoma): 804 nM
- TGI (UACC-62 melanoma): > 100000 nM
- GI50 (HT29 colon): 320 nM
- TGI (HT29 colon): 1900 nM
